What was measured:
blood brain barrier = assay: Evans Blue dye extravasation across the blood brain barrier; type: in vivo, mice; settings: single i.v. injection 100 μl 0.01 nM, 1 h before dye
Protocol: The objective of this experiment was to determine if the blood brain barrier could be modulated by activation of adenosine receptors. NECA is a non-selective adenosine receptor agonist, with similar affinities for A1, A2A and A3 adenosine receptors and a low affinity for the A2b adenosine receptor. In order to determine if activation of adenosine receptors would induce extravasation of Evans Blue dye across the blood brain barrier (BBB), mice were treated with: NECA, a non-selective adenosine receptor agonist (n=5, 100 μl 0.01 nM); SCH58261, an A2A adenosine receptor specific antagonist (n=5, 1 mg/kg); pertussis toxin, an agent known to induce BBB leakiness and as such used as a positive control (n=7, 200 μl); and, PBS as a vehicle control (n=5, 100 μl). CD73^−/− mice, which lack the ability to produce extracellular adenosine, were also treated with NECA (n=4, 100 μl 0.01 nM). Treatments were administered as a single i.v. injection one hour prior to i.v. injection of 200 μl 1% Evans Blue dye ([…] total dye injected). Four hours after administration of Evans Blue, mice were anesthetized with a ketamine/xylazine mix and perfused via the left ventricle with ice cold PBS. […] Following extraction, the tissue/solvent mixture was centrifuged at 500×g for 30 minutes and 100 μl of supernatant was read on a BioTex spectrophotometer at 620 nm. Data is expressed as μg Evans Blue/ml DMF.

hCMEC/D3 cells = assay: Jurkat cell migration across hCMEC/D3-seeded Transwell (in vitro BBB); type: cell-based, human; settings: hCMEC/D3 on Transwell, migrated cells counted after 24 hours
From the text: The blood brain barrier (“BBB”) is comprised of endothelial cells. During late stages of EAE, lymphocytes are known to cross the BBB. In order to determine if adenosine receptor stimulation of brain endothelial cells could promote lymphocyte migration through the BBB, an in vitro BBB was established. The human brain endothelial cell line hCMEC/D3 (Weksler et al., “Blood-brain Barrier-specific Properties of a Human Adult Brain Endothelial Cell Line,” […] (2005); Poller et al., “The Human Brain Endothelial Cell Line hCMEC/D3 as a Human Blood-brain Barrier Model for Drug Transport Studies,” J. Neurochem. 107(5):1358-1368 (2008), which are hereby incorporated by reference in their entirety) was obtained, which has been previously described as having BBB properties.
hCMEC/D3 cells were seeded onto Transwell and allowed to grow to confluencey. 2×10^6 Jurkat cells were added to the upper chamber with or without NECA (general adenosine receptor [AR] agonist), CCPA (A1 AR agonist), CGS 21860 (A2A AR agonist), or DMSO vehicle. After 24 hours, migrated cells in the lower chamber were counted. Values are relative to the number of cells that migrate through non-HCMECD3 seeded transwells.

CCNC(=O)[C@H]1O[C@@H](n2cnc3c(N)ncnc32)[C@H](O)[C@@H]1O [NECA, 5′-N-ethylcarboxamidoadenosine]
Evans Blue dye migration across the BBB vs. PBS control (blood brain barrier; CD73−/− mice): almost five fold increase
Evans Blue dye migration across the BBB vs. control mice (blood brain barrier; WT mice): increase over control mice
lymphocyte (Jurkat) migration across the in vitro BBB (hCMEC/D3 cells): induced some migration
